Literature values in publication PMC3783256 (Marine Drugs, 2004).
pEC50: −log10 of the molar value.

Molecular target: RyR1-FKBP12 complex (Oryctolagus cuniculus, UniProt P11716)
Details: read-out: EC50, weak agonists of the receptor; ref 8a

RyR1-FKBP12 complex, sequence (P11716 whole entry): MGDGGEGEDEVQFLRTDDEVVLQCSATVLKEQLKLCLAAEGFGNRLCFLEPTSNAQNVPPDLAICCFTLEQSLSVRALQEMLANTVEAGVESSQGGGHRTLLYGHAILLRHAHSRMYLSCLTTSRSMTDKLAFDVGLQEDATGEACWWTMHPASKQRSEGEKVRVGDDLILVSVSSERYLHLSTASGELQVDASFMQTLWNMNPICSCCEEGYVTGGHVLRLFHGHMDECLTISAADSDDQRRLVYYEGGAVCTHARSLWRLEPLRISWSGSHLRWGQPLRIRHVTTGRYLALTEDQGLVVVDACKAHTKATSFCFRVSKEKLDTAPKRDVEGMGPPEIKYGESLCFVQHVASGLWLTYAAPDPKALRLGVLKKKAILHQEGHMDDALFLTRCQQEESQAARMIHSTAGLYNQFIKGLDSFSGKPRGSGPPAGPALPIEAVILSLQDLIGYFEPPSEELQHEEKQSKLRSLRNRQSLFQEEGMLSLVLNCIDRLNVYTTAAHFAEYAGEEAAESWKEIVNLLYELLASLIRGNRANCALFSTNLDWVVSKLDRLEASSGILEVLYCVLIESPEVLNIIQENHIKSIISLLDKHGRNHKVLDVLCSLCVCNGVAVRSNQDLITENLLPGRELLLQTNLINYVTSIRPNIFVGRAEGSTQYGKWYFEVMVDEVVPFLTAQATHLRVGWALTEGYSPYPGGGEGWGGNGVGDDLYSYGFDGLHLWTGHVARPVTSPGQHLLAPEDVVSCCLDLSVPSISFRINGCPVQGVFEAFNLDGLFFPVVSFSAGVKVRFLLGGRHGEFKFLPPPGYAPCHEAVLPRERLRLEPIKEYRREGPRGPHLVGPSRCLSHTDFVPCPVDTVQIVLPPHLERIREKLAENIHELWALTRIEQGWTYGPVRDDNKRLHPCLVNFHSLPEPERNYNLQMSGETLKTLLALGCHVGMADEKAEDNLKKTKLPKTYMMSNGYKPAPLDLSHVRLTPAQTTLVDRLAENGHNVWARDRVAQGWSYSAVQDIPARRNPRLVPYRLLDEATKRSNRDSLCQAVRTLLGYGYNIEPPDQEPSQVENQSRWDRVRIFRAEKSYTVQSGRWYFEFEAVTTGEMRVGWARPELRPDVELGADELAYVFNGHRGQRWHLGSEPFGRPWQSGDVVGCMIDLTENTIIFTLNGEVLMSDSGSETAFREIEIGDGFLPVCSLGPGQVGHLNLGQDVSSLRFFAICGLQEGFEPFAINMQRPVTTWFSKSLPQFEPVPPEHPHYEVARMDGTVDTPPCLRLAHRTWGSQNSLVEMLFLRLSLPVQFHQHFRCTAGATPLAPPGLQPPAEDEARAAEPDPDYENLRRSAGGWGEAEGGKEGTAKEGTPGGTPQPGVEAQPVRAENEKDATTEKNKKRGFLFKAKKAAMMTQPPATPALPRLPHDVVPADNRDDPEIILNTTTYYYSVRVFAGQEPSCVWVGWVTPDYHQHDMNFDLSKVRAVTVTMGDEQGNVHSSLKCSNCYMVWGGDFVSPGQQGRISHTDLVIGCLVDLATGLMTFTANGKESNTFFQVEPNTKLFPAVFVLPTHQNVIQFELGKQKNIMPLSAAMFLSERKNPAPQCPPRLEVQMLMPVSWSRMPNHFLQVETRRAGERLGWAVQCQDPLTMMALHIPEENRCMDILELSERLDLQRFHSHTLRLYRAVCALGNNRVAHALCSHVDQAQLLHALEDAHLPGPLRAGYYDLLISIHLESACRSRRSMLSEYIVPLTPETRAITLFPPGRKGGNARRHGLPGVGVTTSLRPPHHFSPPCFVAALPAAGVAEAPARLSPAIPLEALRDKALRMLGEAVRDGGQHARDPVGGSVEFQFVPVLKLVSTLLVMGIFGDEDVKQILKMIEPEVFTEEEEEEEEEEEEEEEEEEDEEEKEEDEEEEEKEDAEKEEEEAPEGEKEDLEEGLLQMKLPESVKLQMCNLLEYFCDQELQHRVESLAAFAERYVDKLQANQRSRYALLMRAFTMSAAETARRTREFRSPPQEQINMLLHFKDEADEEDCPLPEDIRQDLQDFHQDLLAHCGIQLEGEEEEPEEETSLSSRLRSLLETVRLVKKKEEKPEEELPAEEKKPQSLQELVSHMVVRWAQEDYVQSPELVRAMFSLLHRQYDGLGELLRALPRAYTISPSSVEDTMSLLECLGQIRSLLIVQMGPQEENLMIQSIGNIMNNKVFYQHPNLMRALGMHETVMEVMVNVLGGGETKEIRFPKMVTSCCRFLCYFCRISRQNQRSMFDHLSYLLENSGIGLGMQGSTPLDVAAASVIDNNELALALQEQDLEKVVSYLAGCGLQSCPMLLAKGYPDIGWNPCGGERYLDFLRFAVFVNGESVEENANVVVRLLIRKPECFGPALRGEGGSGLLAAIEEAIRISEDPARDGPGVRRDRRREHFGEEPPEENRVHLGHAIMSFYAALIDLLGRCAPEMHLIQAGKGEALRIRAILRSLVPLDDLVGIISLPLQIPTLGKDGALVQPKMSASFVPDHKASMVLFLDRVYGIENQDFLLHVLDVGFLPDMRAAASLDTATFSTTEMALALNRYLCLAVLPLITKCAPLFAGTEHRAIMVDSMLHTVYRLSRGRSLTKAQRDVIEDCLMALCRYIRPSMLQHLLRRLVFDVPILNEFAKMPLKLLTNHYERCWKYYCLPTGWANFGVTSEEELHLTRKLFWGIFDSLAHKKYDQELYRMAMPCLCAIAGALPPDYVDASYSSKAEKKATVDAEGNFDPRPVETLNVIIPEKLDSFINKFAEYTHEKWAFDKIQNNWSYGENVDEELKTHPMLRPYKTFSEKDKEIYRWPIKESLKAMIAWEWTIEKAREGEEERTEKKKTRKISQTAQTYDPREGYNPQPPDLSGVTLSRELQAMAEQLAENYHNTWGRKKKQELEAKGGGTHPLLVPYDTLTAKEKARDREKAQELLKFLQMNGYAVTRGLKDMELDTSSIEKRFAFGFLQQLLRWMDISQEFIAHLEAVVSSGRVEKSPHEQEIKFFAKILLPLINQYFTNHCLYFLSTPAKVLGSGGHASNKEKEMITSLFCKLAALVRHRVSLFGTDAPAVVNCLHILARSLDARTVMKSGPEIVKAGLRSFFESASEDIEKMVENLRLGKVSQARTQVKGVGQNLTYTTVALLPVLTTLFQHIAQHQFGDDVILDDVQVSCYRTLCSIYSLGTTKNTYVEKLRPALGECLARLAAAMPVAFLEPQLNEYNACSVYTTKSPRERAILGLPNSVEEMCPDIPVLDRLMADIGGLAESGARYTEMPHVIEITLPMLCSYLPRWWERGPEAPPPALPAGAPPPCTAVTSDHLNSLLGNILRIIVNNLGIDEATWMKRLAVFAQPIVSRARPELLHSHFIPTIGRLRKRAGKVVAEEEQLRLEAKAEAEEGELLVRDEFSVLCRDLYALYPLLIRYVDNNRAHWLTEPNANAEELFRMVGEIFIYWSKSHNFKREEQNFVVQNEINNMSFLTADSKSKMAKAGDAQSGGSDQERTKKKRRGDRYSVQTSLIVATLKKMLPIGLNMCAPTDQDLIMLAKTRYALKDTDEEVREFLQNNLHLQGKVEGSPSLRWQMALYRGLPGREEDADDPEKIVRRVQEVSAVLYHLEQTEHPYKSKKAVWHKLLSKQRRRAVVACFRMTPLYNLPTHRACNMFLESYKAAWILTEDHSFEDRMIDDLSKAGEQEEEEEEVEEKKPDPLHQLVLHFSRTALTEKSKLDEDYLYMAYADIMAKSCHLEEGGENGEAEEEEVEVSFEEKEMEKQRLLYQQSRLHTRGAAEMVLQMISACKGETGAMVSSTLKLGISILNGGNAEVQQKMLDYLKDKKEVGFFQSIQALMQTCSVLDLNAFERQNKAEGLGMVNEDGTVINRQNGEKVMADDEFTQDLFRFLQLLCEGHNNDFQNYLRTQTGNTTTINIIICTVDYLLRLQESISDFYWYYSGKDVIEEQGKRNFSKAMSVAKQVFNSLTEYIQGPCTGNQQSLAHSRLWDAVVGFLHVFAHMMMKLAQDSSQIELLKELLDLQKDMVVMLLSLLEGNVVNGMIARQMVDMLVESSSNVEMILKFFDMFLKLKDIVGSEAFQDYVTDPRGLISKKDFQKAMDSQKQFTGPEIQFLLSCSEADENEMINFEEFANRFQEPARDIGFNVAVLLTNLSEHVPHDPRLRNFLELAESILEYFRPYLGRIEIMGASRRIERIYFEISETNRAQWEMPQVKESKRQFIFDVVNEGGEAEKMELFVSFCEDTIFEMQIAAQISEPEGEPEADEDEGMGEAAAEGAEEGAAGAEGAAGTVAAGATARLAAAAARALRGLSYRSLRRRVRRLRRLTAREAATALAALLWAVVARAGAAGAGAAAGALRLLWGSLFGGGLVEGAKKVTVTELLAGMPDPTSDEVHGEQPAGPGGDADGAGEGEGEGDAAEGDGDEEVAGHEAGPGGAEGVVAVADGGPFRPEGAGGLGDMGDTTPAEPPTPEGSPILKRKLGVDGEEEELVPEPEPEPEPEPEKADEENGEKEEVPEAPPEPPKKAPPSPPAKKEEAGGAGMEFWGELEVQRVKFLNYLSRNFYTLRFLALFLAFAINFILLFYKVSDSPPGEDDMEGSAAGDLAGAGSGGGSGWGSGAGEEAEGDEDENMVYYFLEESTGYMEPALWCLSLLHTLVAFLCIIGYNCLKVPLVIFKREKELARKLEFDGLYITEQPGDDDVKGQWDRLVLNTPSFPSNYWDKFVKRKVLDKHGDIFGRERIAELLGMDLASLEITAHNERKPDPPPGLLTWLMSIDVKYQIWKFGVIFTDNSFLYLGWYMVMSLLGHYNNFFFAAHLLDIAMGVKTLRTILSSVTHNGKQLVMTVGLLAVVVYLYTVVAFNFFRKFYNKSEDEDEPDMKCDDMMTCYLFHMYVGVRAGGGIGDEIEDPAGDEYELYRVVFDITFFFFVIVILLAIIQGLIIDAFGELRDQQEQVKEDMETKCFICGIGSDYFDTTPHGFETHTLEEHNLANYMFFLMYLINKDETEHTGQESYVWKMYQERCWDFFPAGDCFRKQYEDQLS
RyR1-FKBP12 complex, sequence (P62943 2-108 partner limits assumed): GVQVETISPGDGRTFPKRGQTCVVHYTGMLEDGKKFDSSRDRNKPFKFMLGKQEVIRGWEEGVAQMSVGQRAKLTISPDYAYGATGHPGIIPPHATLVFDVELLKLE

15,34-O-di-sulfatobastadin-7
pEC50: 4.87
